According to paper PMC5228619 (Cell chemical biology, 2016):
Converted amounts (≈) assume the structure as drawn.

Assays:
[1] = test system: UCH MRSA 1 (dfrG); assay: MIC against clinical isolate UCH MRSA 1; type: cell-based, Staphylococcus aureus
[2] = test system: UCH MRSA 115 (dfrA); assay: MIC against clinical isolate UCH MRSA 115; type: cell-based, Staphylococcus aureus
[3] = test system: UCH MRSA 121 (dfrG); assay: MIC against clinical isolate UCH MRSA 121; type: cell-based, Staphylococcus aureus
[4] = test system: UCH MRSA 127 (dfrG); assay: MIC against clinical isolate UCH MRSA 127; type: cell-based, Staphylococcus aureus
[5] = test system: HH MRSA 714 (dfrG); assay: MIC against clinical isolate HH MRSA 714; type: cell-based; conditions: Staphylococcus aureus
[6] = test system: HH MRSA 1144 (dfrA); assay: MIC against clinical isolate HH MRSA 1144; type: cell-based, Staphylococcus aureus
[7] = test system: UCH MSSA 1 (dfrG); assay: MIC against clinical isolate UCH MSSA 1; type: cell-based, Staphylococcus aureus
[8] = test system: HH MRSA 1184 (dfrK); assay: MIC against clinical isolate HH MRSA 1184; type: cell-based, Staphylococcus aureus
[9] = test system: ATCC 43300 (Sa43300); assay: MIC against ATCC 43300; type: cell-based, Staphylococcus aureus
[10] = test system: S. aureus with dfrB point mutations; conditions: point mutations in chromosomal dfrB, ref Dale et al., 1997, cited from earlier work
[11] = test system: multi-drug resistant MRSA ST398 (dfrK); conditions: dfrK in swine MRSA ST398; ref Kadlec et al. 2010; cited from earlier work
[12] = test system: TMP-resistant MRSA and MSSA clinical isolates; assay: MIC against panel of TMP-resistant clinical isolates; type: cell-based, Staphylococcus aureus
[13] = test system: TMP-resistant MRSA and MSSA clinical isolates; assay: Clinical antibiotic susceptibility; type: cell-based, Staphylococcus aureus; conditions: all strains; CLSI breakpoint standards
[14] = Staphylococcus aureus, ATCC43300
[15] = UCH MRSA 115 (dfrA), SSTI isolate
[16] = UCH MRSA 121 (dfrG), sputum isolate
[17] = UCH MRSA 127 (dfrG), SSTI isolate
[18] = HH MRSA 1144 (dfrA), SSTI isolate
[19] = HH MRSA 1184 (dfrK), sputum isolate
[20] = UCH MSSA 1 (dfrG), sinus cavity isolate
[21] = ATCC 43300, no TMP resistance gene

Cc1cc(NS(=O)(=O)c2ccc(N)cc2)no1 [SMX, sulfamethoxazole, reference compound]
MIC ([1]; Staphylococcus aureus, MRSA): > 500 µg/mL
MIC ([2]; Staphylococcus aureus, MRSA): 500 µg/mL (≈ 1970 µM)
MIC ([3]; Staphylococcus aureus, MRSA): > 500 µg/mL
MIC ([4]; Staphylococcus aureus, MRSA): 16 µg/mL (≈ 63.2 µM)
MIC [5]: > 500 µg/mL
MIC ([6]; Staphylococcus aureus, MRSA): > 500 µg/mL
MIC ([7]; Staphylococcus aureus, MSSA): > 500 µg/mL

COc1cc(Cc2cnc(N)nc2N)cc(OC)c1OC [TMP, trimethoprim, reference compound]
MIC ([1]; Staphylococcus aureus, MRSA): > 1000 µg/mL
MIC ([2]; Staphylococcus aureus, MRSA): 250 µg/mL (≈ 861 µM)
MIC ([3]; Staphylococcus aureus, MRSA): > 1000 µg/mL
MIC ([4]; Staphylococcus aureus, MRSA): > 1000 µg/mL
MIC [5]: > 1000 µg/mL
MIC ([8]; Staphylococcus aureus, MRSA): > 1000 µg/mL
MIC ([7]; Staphylococcus aureus, MSSA): > 1000 µg/mL
MIC [9, 14]: 0.312 µg/mL (≈ 1.08 µM)
MIC ([10]; 1990s): 256 µg/mL (≈ 882 µM)
Increase in MIC [10]: ~ 800 fold
MIC [11]: 256 µg/mL (≈ 882 µM)

CCc1nc(N)nc(N)c1C#C[C@@H](C)c1cc(-c2ccc(C(=O)O)cc2)ccc1OC [UCP1164]
MIC ([1]; UCH MRSA 1 (dfrG), blood isolate): 2.5 µg/mL (≈ 6 µM)
MIC [2, 15]: 10 µg/mL (≈ 24 µM)
MIC [3, 16]: 5 µg/mL (≈ 12 µM)
MIC [4, 17]: 2.5 µg/mL (≈ 6 µM)
MIC [6, 18]: 5 µg/mL (≈ 12 µM)
MIC [8, 19]: 0.625 µg/mL (≈ 1.5 µM)
MIC [7, 20]: 5 µg/mL (≈ 12 µM)
MIC [9, 21]: 0.0391 µg/mL (≈ 0.0939 µM)

CCc1nc(N)nc(N)c1C#C[C@@H](C)c1cc(OC)cc(-c2ccc(C(=O)O)cc2)c1 [UCP1172]
MIC [2, 15]: 5 µg/mL (≈ 12 µM)
MIC [3, 16]: 0.625 µg/mL (≈ 1.5 µM)
MIC [4, 17]: 0.3125 µg/mL (≈ 0.75 µM)
MIC [6, 18]: 5 µg/mL (≈ 12 µM)
MIC [8, 19]: 0.3125 µg/mL (≈ 0.75 µM)
MIC [9, 21]: 0.0098 µg/mL (≈ 0.0235 µM)
MIC against strains possessing dfrA ([12]; dfrA-possessing strains): does not significantly inhibit

CCc1nc(N)nc(N)c1C#CC(C)c1cc2c(c(-c3ccc(C(=O)O)cc3)c1)OCO2 (stereo not shown) [UCP1191]
MIC [2, 15]: 20 µg/mL (≈ 46.5 µM)
MIC [3, 16]: 0.625 µg/mL (≈ 1.45 µM)
MIC [4, 17]: 0.1563 µg/mL (≈ 0.363 µM)
MIC [6, 18]: 10 µg/mL (≈ 23.2 µM)
MIC [8, 19]: 0.1563 µg/mL (≈ 0.363 µM)
MIC [7, 20]: 0.3125 µg/mL (≈ 0.726 µM)
MIC against strains carrying dfrG and dfrK ([12]; dfrG- and dfrK-possessing strains): 0.1563−0.625 μg/mL

CCc1nc(N)nc(N)c1C#C[C@@H](C)c1cc2c(c(-c3ccc(C(=O)O)cc3)c1)OCO2 [UCP1205, (S)-4-(6-(4-(2,4-diamino-6-ethylpyrimidin-5-yl)but-3-yn-2-yl)benzo[d][1,3]dioxol-4-yl)benzoic acid]
MIC ([1]; Staphylococcus aureus, MRSA): 0.625 µg/mL (≈ 1.45 µM)
MIC ([2]; Staphylococcus aureus, MRSA): > 10 µg/mL
MIC ([3]; Staphylococcus aureus, MRSA): 0.625 µg/mL (≈ 1.45 µM)
MIC ([4]; Staphylococcus aureus, MRSA): 0.312 µg/mL (≈ 0.726 µM)
MIC [5]: 0.625 µg/mL (≈ 1.45 µM)
MIC ([6]; Staphylococcus aureus, MRSA): > 10 µg/mL
MIC ([8]; Staphylococcus aureus, MRSA): 0.312 µg/mL (≈ 0.726 µM)
MIC ([7]; Staphylococcus aureus, MSSA): 0.312 µg/mL (≈ 0.726 µM)

CCc1nc(N)nc(N)c1C#C[C@H](C)c1cc2c(c(-c3ccc(C(=O)O)cc3)c1)OCO2 [UCP1206, (R)-4-(6-(4-(2,4-diamino-6-ethylpyrimidin-5-yl)but-3-yn-2-yl)benzo[d][1,3]dioxol-4-yl)benzoic acid]
MIC ([1]; Staphylococcus aureus, MRSA): 2.5 µg/mL (≈ 5.81 µM)
MIC ([2]; Staphylococcus aureus, MRSA): > 10 µg/mL
MIC ([3]; Staphylococcus aureus, MRSA): 2.5 µg/mL (≈ 5.81 µM)
MIC ([4]; Staphylococcus aureus, MRSA): 1.25 µg/mL (≈ 2.9 µM)
MIC [5]: 2.5 µg/mL (≈ 5.81 µM)
MIC ([6]; Staphylococcus aureus, MRSA): > 10 µg/mL
MIC ([8]; Staphylococcus aureus, MRSA): 1.25 µg/mL (≈ 2.9 µM)
MIC ([7]; Staphylococcus aureus, MSSA): 1.25 µg/mL (≈ 2.9 µM)
MIC [9, 14]: 0.0098 µg/mL (≈ 0.0228 µM)

CCCCCCCCCC(=O)N[C@@H](Cc1c[nH]c2ccccc12)C(=O)N[C@H](CC(N)=O)C(=O)N[C@@H](CC(=O)O)C(=O)N[C@@H]1C(=O)NCC(=O)N[C@@H](CCCN)C(=O)N[C@@H](CC(=O)O)C(=O)N[C@H](C)C(=O)N[C@@H](CC(=O)O)C(=O)NCC(=O)N[C@H](CO)C(=O)N[C@@H]([C@H](C)CC(=O)O)C(=O)N[C@@H](CC(=O)c2ccccc2N)C(=O)O[C@@H]1C [daptomycin]
Susceptibility based on breakpoint MICs [13]: susceptible

CC(=O)NC[C@H]1CN(c2ccc(N3CCOCC3)c(F)c2)C(=O)O1 [linezolid]
Susceptibility based on breakpoint MICs [13]: susceptible

CO[C@H]1/C=C/O[C@@]2(C)Oc3c(C)c(O)c4c(O)c(c(/C=N/N5CCN(C)CC5)c(O)c4c3C2=O)NC(=O)/C(C)=C\C=C\[C@H](C)[C@H](O)[C@@H](C)[C@@H](O)[C@@H](C)[C@H](OC(C)=O)[C@@H]1C [rifampin]
Susceptibility based on breakpoint MICs [13]: susceptible

CN[C@H](CC(C)C)C(=O)N[C@H]1C(=O)N[C@@H](CC(N)=O)C(=O)N[C@H]2C(=O)N[C@H]3C(=O)N[C@H](C(=O)N[C@H](C(=O)O)c4cc(O)cc(O)c4-c4cc3ccc4O)[C@H](O)c3ccc(c(Cl)c3)Oc3cc2cc(c3O[C@@H]2O[C@H](CO)[C@@H](O)[C@H](O)[C@H]2O[C@H]2C[C@](C)(N)[C@H](O)[C@H](C)O2)Oc2ccc(cc2Cl)[C@H]1O [vancomycin]
Susceptibility based on breakpoint MICs [13]: susceptible
